Data from publication PMC10349806 (Nature Communications, 2023).
“And” between values parts separate entries of the source, which are not always exact repeats. Equal entries are not always repeated.

Columns and labels:
PfCRT variant E207S = test: CQ uptake assay, oocytes expressing E207S; assay type: cell-based, Plasmodium falciparum
Procedure: (§1) Site-directed mutagenesis of PfCRT^Dd2 was performed as described using the megaprimer method with overlap extension[21],[54]. The primer pairs used are listed in Supplementary Table 6. Please note that a codon-optimized and oocyte-adapted version of PfCRT^Dd2 was used[22] (Supplementary Fig. 16). The resulting DNA fragment was cloned into the SP64T expression vector and verified by sequencing.
(§2) Oocytes were obtained as described previously. Briefly, adult (>2 years old) female X. laevis frogs (NASCO) were anesthetized in a cooled solution of ethyl 3-amino benzoate methanesulfonate (0.1%, w/v), followed by a surgical removal of parts of the ovary. The ovary lobes were carefully dissected and small pieces of oocytes were incubated in Ca^2+-free ND96 buffer (96 mM NaCl, 2 mM KCl, 1 mM MgCl2 buffered with 5 mM HEPES/NaOH, pH 7.5) supplemented with collagenase D (0.1%, w/v; Roche), BSA (0.5%, w/v), and 9 mm Na2HPO4 at 18 °C for 14-16 h while gentle shaking. After incubation, the oocytes were carefully washed several times with ND96 buffer (96 mM NaCl, 2 mM KCl, 1.8 mM CaCl2, 1 mM MgCl2 buffered with 5 mM HEPES/NaOH, pH 7.5) supplemented with 100 mg l^−1 gentamycin). Defolliculated and healthy-looking stage V-VI oocytes were manually selected for RNA microinjection. The RNA was generated as following: The codon-optimized sequences of PfCRT variants were cloned into the pSP64T expression vector. After vector linearization using the restriction endonucleases BamHI or SalI (New England Biolabs), transcription was performed using the in vitro SP6 mMessage mMachine Kit (Ambion)[34]. The obtained RNA was kept at −80 °C and diluted with nuclease-free water to a concentration of 0.6 μg μl^−1. Precision-bore glass capillary tubes (3.5-inch glass capillaries; Drummond Scientific Co.) were pulled on a vertical puller (P-87 Flaming/Brown micropipette puller, Sutter Instrument Co.), graduated, and placed on a microinjector (Nanoject II Auto-Nanoliter Injector, Drummond Scientific Co.). 50 nl of nuclease-free water alone (control oocytes) or 50 nl of 0.6 μg μl^−1 RNA were injected under stereomicroscopic control. Injected oocytes were incubated for 46–72 h at 18 °C with twice-daily buffer changes before usage in experiments.
(§3) Drug uptake assays were performed as described previously[21],[22],[24],[34]. […] The direction of radio-labeled drug transport is here from the mostly acidic extracellular solution (pH 4.5 or 6.0, as indicated) into the oocyte cytosol (pH ∼ 7.2), which corresponds to the efflux of drug from the acidic digestive vacuole (pH 5.2) into the parasite cytoplasm (pH 7.2). The topology of PfCRT in the oolemma is such that both the N- and C-terminus face the extracellular milieu[3],[22]. In the parasite, the N- and C-terminus face the lumen of the digestive vacuole. CQ uptake kinetics were performed by incubating oocytes in ND96 buffer adjusted to a pH of 4.5, 5.0, 5.5, or 6.0 and supplemented with 50 nM [^3H]CQ and one of 7 different CQ concentrations (10 µM, 50 µM, 100 µM, 200 µM, 300 µM, 400 µM, 500 µM CQ). The reaction was stopped at the 60 min time point, which is in the linear uptake range[22],[34] (Supplementary Fig. 17). For determination of the amount of drug uptake for each oocyte, the reaction medium was removed and the oocytes were washed three times with 2 ml of ice-cold ND96 buffer. Each oocyte was individually transferred to a scintillation vial containing 5% sodium dodecyl sulfate (200 μl) for lysis. The radioactivity of each sample was measured using a liquid scintillation analyzer Tri-Carb 4910 TR (PerkinElmer). Oocytes that were injected with water instead of RNA were analyzed in parallel, representing the uptake of a drug by diffusion and/or endogenous permeation pathways. The resulting value represents the “background“ level of drug accumulation in oocytes (in-depth discussion in[22]). […]

PfCRT variant F322A = molecular target: T1, PfCRT variant F322A (Plasmodium falciparum, UniProt Q9N623, A220S/F322A/I356T/K76T/M74I/N326S/N75E/Q271E/R371I); test: CQ uptake assay, oocytes expressing F322A; assay type: cell-based
T1 sequence (Q9N623 1-424 M74I/N75E/K76T/A220S/Q271E/F322A/N326S/I356T/R371I): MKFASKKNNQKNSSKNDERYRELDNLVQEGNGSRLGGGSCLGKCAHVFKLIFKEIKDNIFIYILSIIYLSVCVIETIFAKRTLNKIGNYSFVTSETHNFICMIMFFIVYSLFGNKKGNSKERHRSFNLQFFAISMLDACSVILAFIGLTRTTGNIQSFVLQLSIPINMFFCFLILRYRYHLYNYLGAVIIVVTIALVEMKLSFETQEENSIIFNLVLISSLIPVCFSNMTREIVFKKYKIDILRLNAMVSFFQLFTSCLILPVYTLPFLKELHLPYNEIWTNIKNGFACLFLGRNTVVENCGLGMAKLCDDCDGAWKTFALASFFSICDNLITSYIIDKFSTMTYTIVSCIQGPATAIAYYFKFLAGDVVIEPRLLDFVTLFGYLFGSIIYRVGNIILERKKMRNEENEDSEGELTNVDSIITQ
Procedure: as §1, §2, §3

PfCRT variant K80A = test: CQ uptake assay, oocytes expressing K80A; assay type: cell-based, Plasmodium falciparum
Procedure: as §1, §2, §3

[1] = E207S, 50 µM CQ, 1 h, mean ± SEM
[2] = F322A, 50 µM CQ, 1 h, mean ± SEM
[3] = K80A, 50 µM CQ, 1 h, mean ± SEM

CCN(CC)CCCC(C)Nc1ccnc2cc(Cl)ccc12 (stereo not drawn) [CQ, chloroquine]
Activity at pH 4.5 (PfCRT variant E207S; [1]): 2.94 ± 0.21 pmol h-1 oocyte-1
Activity at pH 6.0 (PfCRT variant E207S; [1]): 3.07 ± 0.23 pmol h-1 oocyte-1
R-value (PfCRT variant E207S; E207S, CQ transport at pH 4.5 / pH 6.0): 0.96 ± 0.01
E207S transport activity pH 4.5 (PfCRT variant E207S; pH 4.5, individual replicates, Fig 6b): 3.45 pmol oocyte-1 h-1 and 2.79 pmol oocyte-1 h-1 and 2.59 pmol oocyte-1 h-1
E207S transport activity pH 6.0 (PfCRT variant E207S; pH 6.0, individual replicates, Fig 6b): 3.59 pmol oocyte-1 h-1 and 2.98 pmol oocyte-1 h-1 and 2.63 pmol oocyte-1 h-1
E207S R-value (PfCRT variant E207S; ratio of activity pH 4.5 / pH 6.0): 0.96 and 0.94 and 0.98
Activity at pH 4.5 (PfCRT variant F322A; [2]): 0.72 ± 0.12 pmol h-1 oocyte-1
Activity at pH 6.0 (PfCRT variant F322A; [2]): 1.05 ± 0.12 pmol h-1 oocyte-1
R-value (PfCRT variant F322A; F322A, CQ transport at pH 4.5 / pH 6.0): 0.68 ± 0.04
F322A transport activity pH 4.5 (PfCRT variant F322A; pH 4.5, single replicates, Fig 1d left): 0.55 pmol oocyte-1 h-1 and 1.12 pmol oocyte-1 h-1 and 0.61 pmol oocyte-1 h-1 and 0.60 pmol oocyte-1 h-1
F322A R-value (PfCRT variant F322A; pH 4.5 vs pH 6.0, Fig 1d left): 0.73 and 0.78 and 0.63 and 0.59
F322A transport activity pH 6.0 (PfCRT variant F322A; pH 6.0, single replicates, Fig 1d left): 0.75 pmol oocyte-1 h-1 and 1.44 pmol oocyte-1 h-1 and 0.97 pmol oocyte-1 h-1 and 1.02 pmol oocyte-1 h-1
Activity at pH 4.5 (PfCRT variant K80A; [3]): 1.71 ± 0.08 pmol h-1 oocyte-1
Activity at pH 6.0 (PfCRT variant K80A; [3]): 2.26 ± 0.12 pmol h-1 oocyte-1
R-value (PfCRT variant K80A; K80A, CQ transport at pH 4.5 / pH 6.0): 0.76 ± 0.04
K80A transport activity pH 4.5 (PfCRT variant K80A; pH 4.5, individual replicates (Fig 6a)): 1.97 pmol oocyte-1 h-1 and 1.67 pmol oocyte-1 h-1 and 1.57 pmol oocyte-1 h-1 and 1.62 pmol oocyte-1 h-1
K80A transport activity pH 6.0 (PfCRT variant K80A; pH 6.0, individual replicates (Fig 6a)): 2.59 pmol oocyte-1 h-1 and 1.89 pmol oocyte-1 h-1 and 2.31 pmol oocyte-1 h-1 and 2.26 pmol oocyte-1 h-1
K80A R-value (PfCRT variant K80A; transport activity pH 4.5 relative to pH 6.0 (Fig 6a)): 0.76 and 0.88 and 0.68 and 0.72
